The record followed here is patent publication US20230398130A1, “METHODS AND COMPOSITIONS FOR DIFFERENTIATING STEM CELLS” (Massachusetts Institute of Technology, priority 2020, published 2023).

Assay [1] deals with ISC-enriched organoids. The assay can be described thus: Primary screen, 384-well 2.5-D organoid differentiation (ENR+CD, 6 days, Target Selective Inhibitor Library, vs whole-plate median): ATP (CellTiter-Glo 3D, CTG). The note with it: for Dose.FC.CTG: ENR+CD, 6 days, FC vs plate median; for Z.CTG: standard z score of FC. On the technique in general: In ATP-based viability assays light output follows the ATP content of the culture.

The subject of assay [2] is ISC-enriched organoids. The assay can be described thus: Primary screen, 384-well 2.5-D organoid differentiation (ENR+CD, 6 days): carbachol-induced lysozyme secretion (LYZ.S). It is filed as cell-based, murine. The settings on record: ENR+CD, 6 days, FC vs plate median. The text has this:
(§1) High-throughput screening.

The subject of assay [3] is ISC-enriched organoids. The assay is described as follows: Primary screen, 384-well 2.5-D organoid differentiation (ENR+CD, 6 days): basal lysozyme secretion (LYZ.NS). The note with it: for Dose.FC.LYZ.NS: ENR+CD, 6 days, FC vs plate median; for Z.LYZ.NS: standard z score of FC. Type of assay: cell-based, murine.
Excerpt: as §1

Regarding `CO[C@H]1C[C@@H]2CC[C@@H](C)[C@@](O)(O2)C(=O)C(=O)N2CCCC[C@H]2C(=O)O[C@H]([C@H](C)C[C@@H]2CC[C@@H](OCCO)[C@H](OC)C2)CC(=O)[C@H](C)/C=C(\C)[C@@H](O)[C@@H](OC)C(=O)[C@H](C)C[C@H](C)/C=C/C=C/C=C/1C` [Everolimus (RAD001)], the Dose.FC.CTG was 0.392 log 2 fold change in assay [1] (Dose 0.08 uM), 0.127 log 2 fold change in assay [1] (Dose 0.40 uM), 0.132 log 2 fold change in assay [1] (Dose 2.00 uM) and −0.111 log 2 fold change in assay [1] (Dose 10.00 uM). For the same compound, the Z.CTG in assay [1] (Dose 0.08 uM) was 0.936; in assay [1] (Dose 0.40 uM) it was 0.304; in assay [1] (Dose 2.00 uM) it was 0.314; in assay [1] (Dose 10.00 uM), −0.266. Moreover, the Dose.FC.LYZ.S in assay [2] (Dose 0.08 uM) is −0.012 log 2 fold change; in assay [2] (Dose 0.40 uM) it was −0.007 log 2 fold change; in assay [2] (Dose 2.00 uM), −0.039 log 2 fold change; in assay [2] (Dose 10.00 uM), −0.096 log 2 fold change. Also, the Dose.FC.LYZ.NS is 0.068 log 2 fold change in assay [3] (Dose 0.08 uM), 0.110 log 2 fold change in assay [3] (Dose 0.40 uM), −0.003 log 2 fold change in assay [3] (Dose 2.00 uM) and −0.024 log 2 fold change in assay [3] (Dose 10.00 uM). The Z.LYZ.NS in assay [3] (Dose 0.08 uM) was 0.590; in assay [3] (Dose 0.40 uM) it was 0.956; in assay [3] (Dose 2.00 uM), −0.030; in assay [3] (Dose 10.00 uM), −0.210.

As to `CC1=C(C(=O)OC2CCCCC2)C(c2ccc([N+](=O)[O-])cc2)C2=C(CC(C)(C)CC2=O)N1` (centres unmarked) [FLI-06], the Dose.FC.CTG was 0.089 log 2 fold change in assay [1] (Dose 0.08 uM), 0.095 log 2 fold change in assay [1] (Dose 0.40 uM), 0.076 log 2 fold change in assay [1] (Dose 2.00 uM) and −0.343 log 2 fold change in assay [1] (Dose 10.00 uM). Moreover, the Z.CTG is on record as 0.213 in assay [1] (Dose 0.08 uM), 0.226 in assay [1] (Dose 0.40 uM), 0.182 in assay [1] (Dose 2.00 uM) and −0.819 in assay [1] (Dose 10.00 uM). For the same compound, the Dose.FC.LYZ.S in assay [2] (Dose 0.08 uM) is 0.079 log 2 fold change; in assay [2] (Dose 0.40 uM), 0.010 log 2 fold change; in assay [2] (Dose 2.00 uM) it was −0.077 log 2 fold change; in assay [2] (Dose 10.00 uM), −0.170 log 2 fold change. For the same compound, the Dose.FC.LYZ.NS in assay [3] (Dose 0.08 uM) is given as 0.050 log 2 fold change; in assay [3] (Dose 0.40 uM), −0.026 log 2 fold change; in assay [3] (Dose 2.00 uM), −0.054 log 2 fold change; in assay [3] (Dose 10.00 uM), −0.140 log 2 fold change. Besides, the Z.LYZ.NS was 0.439 in assay [3] (Dose 0.08 uM), −0.230 in assay [3] (Dose 0.40 uM), −0.466 in assay [3] (Dose 2.00 uM) and −1.216 in assay [3] (Dose 10.00 uM).

`CCOC(=O)c1ccc(NC2CCCCC2)c(N)c1` [Ferrostatin-1 (Fer-1)]: the Dose.FC.CTG is listed as 0.312 log 2 fold change in assay [1] (Dose 0.08 uM), 0.453 log 2 fold change in assay [1] (Dose 0.40 uM), 0.215 log 2 fold change in assay [1] (Dose 2.00 uM) and −0.046 log 2 fold change in assay [1] (Dose 10.00 uM). Moreover, the Z.CTG in assay [1] (Dose 0.08 uM) is 0.745; in assay [1] (Dose 0.40 uM), 1.082; in assay [1] (Dose 2.00 uM), 0.514; in assay [1] (Dose 10.00 uM), −0.109. Moreover, the Dose.FC.LYZ.S in assay [2] (Dose 0.08 uM) was 0.120 log 2 fold change; in assay [2] (Dose 0.40 uM), 0.207 log 2 fold change; in assay [2] (Dose 2.00 uM), 0.092 log 2 fold change; in assay [2] (Dose 10.00 uM), −0.018 log 2 fold change. Also, the Dose.FC.LYZ.NS in assay [3] (Dose 0.08 uM) came out at 0.108 log 2 fold change; in assay [3] (Dose 0.40 uM), 0.116 log 2 fold change; in assay [3] (Dose 2.00 uM), 0.070 log 2 fold change; in assay [3] (Dose 10.00 uM), 0.013 log 2 fold change. The Z.LYZ.NS in assay [3] (Dose 0.08 uM) was 0.944; in assay [3] (Dose 0.40 uM) it was 1.012; in assay [3] (Dose 2.00 uM) it was 0.610; in assay [3] (Dose 10.00 uM), 0.116.

On to `CCCCCCCCc1ccc(CCC(N)(CO)CO)cc1.Cl` [Fingolimod (FTY720) HCl], for which the Dose.FC.CTG in assay [1] (Dose 0.08 uM) was −0.080 log 2 fold change; in assay [1] (Dose 0.40 uM), 0.103 log 2 fold change; in assay [1] (Dose 2.00 uM) it was −0.468 log 2 fold change; in assay [1] (Dose 10.00 uM) it was −1.304 log 2 fold change. The Z.CTG is −0.191 in assay [1] (Dose 0.08 uM), 0.245 in assay [1] (Dose 0.40 uM), −1.119 in assay [1] (Dose 2.00 uM) and −3.116 in assay [1] (Dose 10.00 uM). For the same compound, the Dose.FC.LYZ.S was −0.046 log 2 fold change in assay [2] (Dose 0.08 uM), 0.077 log 2 fold change in assay [2] (Dose 0.40 uM), −0.060 log 2 fold change in assay [2] (Dose 2.00 uM) and −0.362 log 2 fold change in assay [2] (Dose 10.00 uM). Further, the Dose.FC.LYZ.NS in assay [3] (Dose 0.08 uM) is −0.054 log 2 fold change; in assay [3] (Dose 0.40 uM), 0.071 log 2 fold change; in assay [3] (Dose 2.00 uM), 0.021 log 2 fold change; in assay [3] (Dose 10.00 uM), −0.225 log 2 fold change. For the same compound, the Z.LYZ.NS in assay [3] (Dose 0.08 uM) was −0.471; in assay [3] (Dose 0.40 uM) it was 0.616; in assay [3] (Dose 2.00 uM), 0.186; in assay [3] (Dose 10.00 uM), −1.961.

With `COc1ccc(C[C@@H](C)NC[C@H](O)c2ccc(O)c(NC=O)c2)cc1.COc1ccc(C[C@@H](C)NC[C@H](O)c2ccc(O)c(NC=O)c2)cc1.O=C(O)/C=C/C(=O)O` [Formoterol Hemifumarate], the Dose.FC.CTG in assay [1] (Dose 0.08 uM) was 0.294 log 2 fold change; in assay [1] (Dose 0.40 uM), 0.265 log 2 fold change; in assay [1] (Dose 2.00 uM), 0.242 log 2 fold change; in assay [1] (Dose 10.00 uM), 0.253 log 2 fold change. The Z.CTG is 0.703 in assay [1] (Dose 0.08 uM), 0.633 in assay [1] (Dose 0.40 uM), 0.578 in assay [1] (Dose 2.00 uM) and 0.604 in assay [1] (Dose 10.00 uM). Moreover, the Dose.FC.LYZ.S is 0.206 log 2 fold change in assay [2] (Dose 0.08 uM), 0.293 log 2 fold change in assay [2] (Dose 0.40 uM), 0.090 log 2 fold change in assay [2] (Dose 2.00 uM) and 0.011 log 2 fold change in assay [2] (Dose 10.00 uM). For the same compound, the Dose.FC.LYZ.NS in assay [3] (Dose 0.08 uM) was determined as 0.145 log 2 fold change; in assay [3] (Dose 0.40 uM), 0.073 log 2 fold change; in assay [3] (Dose 2.00 uM), 0.048 log 2 fold change; in assay [3] (Dose 10.00 uM), 0.013 log 2 fold change. Also, the Z.LYZ.NS in assay [3] (Dose 0.08 uM) was found to be 1.263; in assay [3] (Dose 0.40 uM), 0.638; in assay [3] (Dose 2.00 uM) it was 0.420; in assay [3] (Dose 10.00 uM) it was 0.114.

In the case of `COc1cc(Nc2ncc(F)c(Nc3ccc4c(n3)N(COP(=O)(O)O)C(=O)C(C)(C)O4)n2)cc(OC)c1OC` [Fostamatinib (R788)], the Dose.FC.CTG in assay [1] (Dose 0.08 uM) is listed as 0.232 log 2 fold change; in assay [1] (Dose 0.40 uM) it was −0.052 log 2 fold change; in assay [1] (Dose 2.00 uM), −0.231 log 2 fold change; in assay [1] (Dose 10.00 uM) it was −0.881 log 2 fold change. The Z.CTG was 0.554 in assay [1] (Dose 0.08 uM), −0.123 in assay [1] (Dose 0.40 uM), −0.552 in assay [1] (Dose 2.00 uM) and −2.105 in assay [1] (Dose 10.00 uM). The Dose.FC.LYZ.S in assay [2] (Dose 0.08 uM) was 0.235 log 2 fold change; in assay [2] (Dose 0.40 uM), 0.156 log 2 fold change; in assay [2] (Dose 2.00 uM) it was −0.015 log 2 fold change; in assay [2] (Dose 10.00 uM), −0.350 log 2 fold change. The Dose.FC.LYZ.NS in assay [3] (Dose 0.08 uM) is 0.119 log 2 fold change; in assay [3] (Dose 0.40 uM) it was −0.025 log 2 fold change; in assay [3] (Dose 2.00 uM) it was −0.099 log 2 fold change; in assay [3] (Dose 10.00 uM), −0.234 log 2 fold change. Moreover, the Z.LYZ.NS is 1.033 in assay [3] (Dose 0.08 uM), −0.217 in assay [3] (Dose 0.40 uM), −0.860 in assay [3] (Dose 2.00 uM) and −2.036 in assay [3] (Dose 10.00 uM).

Regarding `CC(C)NC[C@@H](C(=O)N1CCN(c2ncnc3c2[C@H](C)C[C@H]3O)CC1)c1ccc(Cl)cc1` [GDC-0068], the Dose.FC.CTG in assay [1] (Dose 0.08 uM) is 0.042 log 2 fold change; in assay [1] (Dose 0.40 uM), 0.118 log 2 fold change; in assay [1] (Dose 2.00 uM), 0.184 log 2 fold change; in assay [1] (Dose 10.00 uM), −0.100 log 2 fold change. Also, the Z.CTG in assay [1] (Dose 0.08 uM) is 0.099; in assay [1] (Dose 0.40 uM), 0.283; in assay [1] (Dose 2.00 uM) it was 0.439; in assay [1] (Dose 10.00 uM), −0.238. For the same compound, the Dose.FC.LYZ.S is on record as 0.076 log 2 fold change in assay [2] (Dose 0.08 uM), 0.087 log 2 fold change in assay [2] (Dose 0.40 uM), −0.059 log 2 fold change in assay [2] (Dose 2.00 uM) and −0.319 log 2 fold change in assay [2] (Dose 10.00 uM). Moreover, the Dose.FC.LYZ.NS in assay [3] (Dose 0.08 uM) is 0.036 log 2 fold change; in assay [3] (Dose 0.40 uM), 0.054 log 2 fold change; in assay [3] (Dose 2.00 uM) it was −0.077 log 2 fold change; in assay [3] (Dose 10.00 uM), −0.185 log 2 fold change. The Z.LYZ.NS in assay [3] (Dose 0.08 uM) is 0.311; in assay [3] (Dose 0.40 uM), 0.469; in assay [3] (Dose 2.00 uM) it was −0.675; in assay [3] (Dose 10.00 uM), −1.613.
